The values that follow come from the supplement of paper PMC10307832.

Assay in all cases: relative viability (nuclei count vs DMSO), 5 days (fraction); higher = more cells survive
Compound in experiment [1]: CN[C@@H]1C[C@H]2O[C@@](C)([C@@H]1OC)n1c3ccccc3c3c4c(c5c6ccccc6n2c5c31)C(=O)NC4 [Staurosporine] + C[C@]1(O)C[C@@H](c2nc(-c3ccc4ccc(-c5ccccc5)nc4c3)c3c(N)nccn32)C1 [Linsitinib] (partner 1 µM)
In short, it runs like this:
(§1)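 Medians of duplicate plates are given as relative viability. That measure is the nuclei count in treated wells divided by the count in vehicle wells. Counts were taken on 4× images of lung cancer cell lines in 1536-well plates, 5 days after pin-tool dosing the day after seeding with one drug alone or a fixed anchor-drug dose plus five library-drug doses (not always all listed) in √10 steps.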

Compound in experiment [2]: O=c1[nH]cc(F)c(=O)[nH]1 [5-Fluorouracil] + CCNC(=O)c1noc(-c2cc(C(C)C)c(O)cc2O)c1-c1ccc(CN2CCOCC2)cc1 [Luminespib] (partner 0.01 µM)
Summed up: as §1

Compound in the experiment “5-Fluorouracil + OSI-027”: O=c1[nH]cc(F)c(=O)[nH]1 [5-Fluorouracil] + COc1cccc2cc(-c3nc([C@H]4CC[C@H](C(=O)O)CC4)n4ncnc(N)c34)[nH]c12 [OSI-027] (partner 0.5 µM)
Summed up: as §1

Compound in experiment [3]: O=c1[nH]cc(F)c(=O)[nH]1 [5-Fluorouracil] + Nc1nc2[nH]cc(CCc3ccc(C(=O)N[C@@H](CCC(=O)O)C(=O)O)cc3)c2c(=O)[nH]1 [Pemetrexed] (partner 0.2 µM)
In short, it runs like this:
as §1

Take NCI-H596: the relative viability in experiment [1] (first compound 0.005 µM) stood at 1.34; in experiment [1] (first compound 0.01581 µM), 0.854; in experiment [1] (first compound 0.05 µM) it was 0.854; in experiment [1] (first compound 0.1581 µM), 0.385; in experiment [1] (first compound 0.5 µM), 0.148; in experiment [2] (first compound 0.02 µM) it was 1. Moreover, the relative viability in experiment [2] (first compound 0.2 µM) turned out to be 0.728; in experiment [2] (first compound 0.6325 µM), 0.726; in experiment [2] (first compound 2 µM), 0.542; with 5-Fluorouracil + OSI-027 (first compound 0.02 µM) it was 0.832; in the experiment with 5-Fluorouracil + OSI-027 (first compound 0.2 µM) it was 0.82; with 5-Fluorouracil + OSI-027 (first compound 0.6325 µM), 0.623. For the same cell line, the relative viability worked out at 0.337 with 5-Fluorouracil + OSI-027 (first compound 2 µM); 0.547 in experiment [3] (first compound 0.02 µM); 0.524 in experiment [3] (first compound 0.2 µM); 0.486 in experiment [3] (first compound 0.6325 µM); 0.435 in experiment [3] (first compound 2 µM).

As to NCI-H647, the relative viability is 0.616 in experiment [1] (first compound 0.005 µM); 0.361 in experiment [1] (first compound 0.01581 µM); 0.22 in experiment [1] (first compound 0.05 µM); 0.112 in experiment [1] (first compound 0.1581 µM); 0.0579 in experiment [1] (first compound 0.5 µM); 0.166 in experiment [2] (first compound 0.02 µM). In addition, the relative viability is 0.157 in experiment [2] (first compound 0.2 µM); 0.243 in experiment [2] (first compound 0.6325 µM); 0.136 in experiment [2] (first compound 2 µM); 0.616 with 5-Fluorouracil + OSI-027 (first compound 0.02 µM); 0.724 in the experiment with 5-Fluorouracil + OSI-027 (first compound 0.2 µM); 0.464 in the experiment with 5-Fluorouracil + OSI-027 (first compound 0.6325 µM). The relative viability was 0.378 with 5-Fluorouracil + OSI-027 (first compound 2 µM); 0.187 in experiment [3] (first compound 0.02 µM); 0.182 in experiment [3] (first compound 0.2 µM); 0.176 in experiment [3] (first compound 0.6325 µM); 0.164 in experiment [3] (first compound 2 µM).

NCI-H650: the relative viability in experiment [1] (first compound 0.005 µM) came out at 0.472; in experiment [1] (first compound 0.01581 µM), 0.289; in experiment [1] (first compound 0.05 µM), 0.249; in experiment [1] (first compound 0.1581 µM) it was 0.197; in experiment [1] (first compound 0.5 µM) it was 0.177; in experiment [2] (first compound 0.02 µM), 0.766. Besides, the relative viability in experiment [2] (first compound 0.2 µM) worked out at 0.533; in experiment [2] (first compound 0.6325 µM), 0.348; in experiment [2] (first compound 2 µM) it was 0.277; with 5-Fluorouracil + OSI-027 (first compound 0.02 µM), 0.493; in the experiment with 5-Fluorouracil + OSI-027 (first compound 0.2 µM), 0.357; in the experiment with 5-Fluorouracil + OSI-027 (first compound 0.6325 µM), 0.362. Also, the relative viability in the experiment with 5-Fluorouracil + OSI-027 (first compound 2 µM) is 0.267; in experiment [3] (first compound 0.02 µM) it was 0.762; in experiment [3] (first compound 0.2 µM), 0.649; in experiment [3] (first compound 0.6325 µM), 0.36; in experiment [3] (first compound 2 µM), 0.317.

For the cell line NCI-H661, the relative viability in experiment [1] (first compound 0.005 µM) is 0.458; in experiment [1] (first compound 0.01581 µM) it was 0.384; in experiment [1] (first compound 0.05 µM), 0.258; in experiment [1] (first compound 0.1581 µM), 0.245; in experiment [1] (first compound 0.5 µM) it was 0.226; in experiment [2] (first compound 0.02 µM), 0.942. The relative viability stood at 0.955 in experiment [2] (first compound 0.6325 µM); 0.888 in experiment [2] (first compound 2 µM); 0.674 with 5-Fluorouracil + OSI-027 (first compound 0.02 µM); 0.661 in the experiment with 5-Fluorouracil + OSI-027 (first compound 0.6325 µM); 0.691 in the experiment with 5-Fluorouracil + OSI-027 (first compound 2 µM); 0.998 in experiment [3] (first compound 0.02 µM). Further, the figures for the relative viability in experiment [3] (first compound 0.2 µM), in experiment [3] (first compound 0.6325 µM) and in experiment [3] (first compound 2 µM) were 0.905, 0.947 and 0.883, respectively.

Take NCI-H838: the relative viability in experiment [1] (first compound 0.005 µM) is 0.248; in experiment [1] (first compound 0.01581 µM), 0.153; in experiment [1] (first compound 0.05 µM) it was 0.18; in experiment [1] (first compound 0.1581 µM), 0.164; in experiment [1] (first compound 0.5 µM), 0.099; in experiment [2] (first compound 0.02 µM), 0.261. In addition, the relative viability was 0.245 in experiment [2] (first compound 0.2 µM); 0.209 in experiment [2] (first compound 0.6325 µM); 0.16 in experiment [2] (first compound 2 µM); 0.42 with 5-Fluorouracil + OSI-027 (first compound 0.02 µM); 0.373 with 5-Fluorouracil + OSI-027 (first compound 0.2 µM); 0.252 with 5-Fluorouracil + OSI-027 (first compound 0.6325 µM). The relative viability is 0.209 with 5-Fluorouracil + OSI-027 (first compound 2 µM); 0.261 in experiment [3] (first compound 0.02 µM); 0.253 in experiment [3] (first compound 0.2 µM); 0.257 in experiment [3] (first compound 0.6325 µM); 0.249 in experiment [3] (first compound 2 µM).

In the case of NCI-H1355, the relative viability in experiment [1] (first compound 0.005 µM) is 0.908; in experiment [1] (first compound 0.01581 µM), 0.543; in experiment [1] (first compound 0.05 µM), 0.24; in experiment [1] (first compound 0.1581 µM), 0.269; in experiment [1] (first compound 0.5 µM) it was 0.223; in experiment [2] (first compound 0.02 µM), 0.644. Also, the relative viability in experiment [2] (first compound 0.2 µM) came out at 0.57; in experiment [2] (first compound 0.6325 µM), 0.287; in experiment [2] (first compound 2 µM), 0.246; in the experiment with 5-Fluorouracil + OSI-027 (first compound 0.02 µM) it was 0.465; with 5-Fluorouracil + OSI-027 (first compound 0.2 µM), 0.4; with 5-Fluorouracil + OSI-027 (first compound 0.6325 µM), 0.274. For the same cell line, the relative viability with 5-Fluorouracil + OSI-027 (first compound 2 µM) is 0.268; in experiment [3] (first compound 0.02 µM), 0.928; in experiment [3] (first compound 0.2 µM), 0.762; in experiment [3] (first compound 0.6325 µM) it was 0.311; in experiment [3] (first compound 2 µM) it was 0.257.

Consider NCI-H1395, for which the relative viability in experiment [1] (first compound 0.005 µM) is 0.947; in experiment [1] (first compound 0.01581 µM), 0.427; in experiment [1] (first compound 0.05 µM), 0.381; in experiment [1] (first compound 0.1581 µM), 0.377; in experiment [1] (first compound 0.5 µM), 0.289; in experiment [2] (first compound 0.02 µM), 0.638. Further, the relative viability was found to be 0.675 in experiment [2] (first compound 0.2 µM); 0.743 in experiment [2] (first compound 0.6325 µM); 0.658 in experiment [2] (first compound 2 µM); 0.505 with 5-Fluorouracil + OSI-027 (first compound 0.02 µM); 0.738 with 5-Fluorouracil + OSI-027 (first compound 0.2 µM); 0.579 with 5-Fluorouracil + OSI-027 (first compound 0.6325 µM). Moreover, the relative viability was 0.684 with 5-Fluorouracil + OSI-027 (first compound 2 µM); 0.743 in experiment [3] (first compound 0.02 µM); 0.994 in experiment [3] (first compound 0.2 µM); 0.902 in experiment [3] (first compound 0.6325 µM); 0.893 in experiment [3] (first compound 2 µM).

As to NCI-H1437, the relative viability in experiment [1] (first compound 0.01581 µM) came to 0.43; in experiment [1] (first compound 0.05 µM), 0.255; in experiment [1] (first compound 0.1581 µM), 0.128; in experiment [1] (first compound 0.5 µM), 0.0812; in experiment [2] (first compound 0.02 µM), 0.706; in experiment [2] (first compound 0.2 µM), 0.324. Besides, the relative viability in experiment [2] (first compound 0.6325 µM) stood at 0.313; in experiment [2] (first compound 2 µM), 0.202; in the experiment with 5-Fluorouracil + OSI-027 (first compound 0.02 µM), 0.495; in the experiment with 5-Fluorouracil + OSI-027 (first compound 0.2 µM) it was 0.23; in the experiment with 5-Fluorouracil + OSI-027 (first compound 0.6325 µM), 0.205; in the experiment with 5-Fluorouracil + OSI-027 (first compound 2 µM) it was 0.188. For the same cell line, the relative viability in experiment [3] (first compound 0.02 µM) came to 0.269; in experiment [3] (first compound 0.2 µM), 0.271; in experiment [3] (first compound 0.6325 µM), 0.208; in experiment [3] (first compound 2 µM), 0.262.

NCI-H1563: the relative viability in experiment [1] (first compound 0.005 µM) worked out at 0.752; in experiment [1] (first compound 0.01581 µM), 0.611; in experiment [1] (first compound 0.05 µM), 0.733; in experiment [1] (first compound 0.1581 µM) it was 0.654; in experiment [1] (first compound 0.5 µM), 0.478; in experiment [2] (first compound 0.02 µM), 0.49. The relative viability in experiment [2] (first compound 0.2 µM) came to 0.478; in experiment [2] (first compound 0.6325 µM), 0.499; in experiment [2] (first compound 2 µM) it was 0.488; with 5-Fluorouracil + OSI-027 (first compound 0.02 µM) it was 0.679; with 5-Fluorouracil + OSI-027 (first compound 0.2 µM) it was 0.791; with 5-Fluorouracil + OSI-027 (first compound 0.6325 µM), 0.7. For the same cell line, the relative viability was determined as 0.696 in the experiment with 5-Fluorouracil + OSI-027 (first compound 2 µM); 0.711 in experiment [3] (first compound 0.02 µM); 0.924 in experiment [3] (first compound 0.2 µM); 0.786 in experiment [3] (first compound 0.6325 µM); 0.732 in experiment [3] (first compound 2 µM).
